How the values were obtained:
HBV DNA = test: Anti-HBV activity in HepDE19 cells (HBV DNA dot-blot); format: cell-based, Hepatitis B virus (HBV); settings: Hepatitis B virus, 120 h; HepDE19 cells, five days after compound treatment, concentration that inhibited HBV DNA by 50%; read-out: HepDe19 EC50
Source text: Cells and culture conditions: HepDE19 (Haitao Guo et al, Journal of Virology, 81, November 2007, 12472-12484; Richeng Mao et al, Journal of Virology, 85, January 2011, 1048-1057) cells were derived from HepG2 (ATCC, American Type Culture Collection) cells through transfection with pTet-off plasmid (Clontech) that expresses the Tet-responsive transcriptional activator and pTREHBVDE plasmid in which HBV pgRNA expression is controlled by a CMV early promoter with a tetracycline-responsive element. The transfected cells were selected with G418 (also known as Genticin, purchased from Invitrogen). […] These cells were maintained in Dulbecco's modified Eagle's medium (DMEM)-F12 medium (Invitrogen) supplemented with 10% fetal bovine serum, 100 U/ml penicillin, and 100 μg/ml streptomycin, 0.5 mg/ml of G418 and 1 μg/ml tetracycline.
Anti-HBV activity and cytotoxicity: HepDE19 cells were seeded into 96-well plates (3×10^4 cells/well) with tetracycline-free medium and incubated overnight at 37° C. The test or control compounds were serially half-log diluted with medium and added into the plates (the final concentration of DMSO kept at 0.5% in each well). Five days after compound treatment, cells were washed with PBS and lysed with 50 mM Tris-1 mM EDTA-0.2% CA-630 (pH 8.0) at 37° C. for 20 min. After centrifugation to remove nuclei and other debris, the supernatant was transferred into a new plate and incubated with 2M NaOH/20×SSC (3M NaCl, 0.3M Sodium citrate, pH7.0) at rt for 30 min. Then the samples were transferred to nylon membrane and neutralized with 1M Tris (pH7.4)/2M NaCl. The presence of HBV DNA was detected by dot-blot with DIG-labeled HBV specific DNA probe and quantified by dot density. The compound concentrations that inhibited HBV DNA by 50% (EC50) were determined (See Table 1).

in vitro = settings: human
Procedure: The transfected cells were selected with G418 (also known as Genticin, purchased from Invitrogen). […] These cells were maintained in Dulbecco's modified Eagle's medium (DMEM)-F12 medium (Invitrogen) supplemented with 10% fetal bovine serum, 100 U/ml penicillin, and 100 μg/ml streptomycin, 0.5 mg/ml of G418 and 1 μg/ml tetracycline.
To determine if the anti-HBV effect of compound is due to cytotoxicity, HepDE 19 cells (5×10^3 cells/well) were seeded into 96-well plates and compounds were treated as described above. […] Four hours after incubation at 37° C., the absorbance at wavelengths of 450 nm and 630 nm (OD450 and OD630) was recorded by a plate reader.

Compound: COC(=O)C1=C(CN2CC(F)(F)C[C@H]2C(=O)Nc2nccs2)NC(c2nccs2)=N[C@@]1(C)c1ccc(F)cc1 [Example 52, (S)-6-[(S)-4,4-difluoro-2-(thiazol-2-ylcarbamoyl)-pyrrolidin-1-ylmethyl]-4-(4-fluoro-phenyl)-4-methyl-2-thiazol-2-yl-1,4-dihydro-pyrimidine-5-carboxylic acid methyl ester]
- EC50 (HBV DNA): 5.43 µM
- CC50 at 5 days (in vitro): 4.07 µM

Compound: COC(=O)C1=C(CN2CC(F)(F)C[C@H]2C(=O)O)NC(c2ncc(Cl)s2)=N[C@@]1(C)c1ccc(F)cc1 [Example 33, (S)-6-((S)-2-carboxy-4,4-difluoro-pyrrolidin-1-ylmethyl)-2-(5-chloro-thiazol-2-yl)-4-(4-fluoro-phenyl)-4-methyl-1,4-dihydro-pyrimidine-5-carboxylic acid methyl ester]
- EC50 (HBV DNA): 2.07 µM
- CC50 at 5 days (in vitro): 80 µM

Compound: COC(=O)C1=C(CN2CC(F)(F)C[C@H]2c2nnc(C)o2)NC(c2nccs2)=N[C@@]1(C)c1ccc(F)cc1 [Example 57, (S)-6-[(S)-4,4-difluoro-2-(5-methyl-[1,3,4]oxadiazol-2-yl)-pyrrolidin-1-ylmethyl]-4-(4-fluoro-phenyl)-4-methyl-2-thiazol-2-yl-1,4-dihydro-pyrimidine-5-carboxylic acid methyl ester]
- EC50 (HBV DNA): 1.56 µM
- CC50 at 5 days (in vitro): ≥ 100 µM

Compound: COC(=O)C1=C(CN2CC(F)(F)C[C@H]2C(=O)O)NC(c2cc(C)on2)=NC1(C)c1ccc(F)cc1 (stereo partly drawn) [Example 40, 6-((S)-2-carboxy-4,4-difluoro-pyrrolidin-1-ylmethyl)-4-(4-fluoro-phenyl)-4-methyl-2-(5-methyl-isoxazol-3-yl)-1,4-dihydro-pyrimidine-5-carboxylic acid methyl ester]
- EC50 (HBV DNA): 5.39 µM
- CC50 at 5 days (in vitro): ≥ 100 µM

Compound: COC(=O)C1=C(CN2CC(F)(F)C[C@H]2C(C)(C)O)NC(c2nccs2)=N[C@@]1(C)c1ccc(F)cc1 [Example 54, (S)-6-[(S)-4,4-difluoro-2-(1-hydroxy-1-methyl-ethyl)-pyrrolidin-1-ylmethyl]-4-(4-fluoro-phenyl)-4-methyl-2-thiazol-2-yl-1,4-dihydro-pyrimidine-5-carboxylic acid methyl ester]
- EC50 (HBV DNA): 0.7 µM
- CC50 at 5 days (in vitro): 50.4 µM

Compound: COC(=O)C1=C(CN2CC(F)(F)C[C@@]2(C)C(=O)O)NC(c2nccs2)=N[C@]1(C)c1ccc(F)cc1 [Example 36, (R)-6-((S)-2-carboxy-4,4-difluoro-2-methyl-pyrrolidin-1-ylmethyl)-4-(4-fluoro-phenyl)-4-methyl-2-thiazol-2-yl-1,4-dihydro-pyrimidine-5-carboxylic acid methyl ester]
- EC50 (HBV DNA): 7.49 µM
- CC50 at 5 days (in vitro): ≥ 100 µM

Compound: COC(=O)C1=C(CN2CCOC[C@H]2C(=O)OC)NC(c2nccs2)=NC1(C)c1ccc(F)c(F)c1 (stereo in doubt) [Example 15, 4-[(S)-6-(3,4-Difluoro-phenyl)-5-methoxycarbonyl-6-methyl-2-thiazol-2-yl-3,6-dihydro-pyrimidin-4-ylmethyl]-morpholine-3-carboxylic acid methyl ester]
- EC50 (HBV DNA): 0.56 µM
- CC50 at 5 days (in vitro): > 100 µM

Compound: COC(=O)C1=C(CN2CC(F)(F)C[C@H]2C(=O)O)NC(c2ccc(F)cn2)=N[C@@]1(C)c1ccc(F)cc1 [Example 18, (S)-6-((S)-2-Carboxy-4,4-difluoro-pyrrolidin-1-ylmethyl)-4-(4-fluoro-phenyl)-2-(5-fluoro-pyridin-2-yl)-4-methyl-1,4-dihydro-pyrimidine-5-carboxylic acid methyl ester]
- EC50 (HBV DNA): 0.57 µM
- CC50 at 5 days (in vitro): 25 µM

Compound: COC(=O)C1=C(CN2CCOC[C@H]2CO)NC(c2nccs2)=NC1(C)c1ccc(F)cc1 (stereo partly drawn) [Example 53, 4-(4-fluoro-phenyl)-6-((R)-3-hydroxymethyl-morpholin-4-ylmethyl)-4-methyl-2-thiazol-2-yl-1,4-dihydro-pyrimidine-5-carboxylic acid methyl ester]
- EC50 (HBV DNA): 1.75 µM
- CC50 at 5 days (in vitro): ≥ 100 µM

Compound: COC(=O)C1=C(CN2CC(F)(F)C[C@H]2C(N)=O)NC(c2nccs2)=N[C@@]1(C)c1ccc(F)cc1 [Example 48, (S)-6-((S)-2-carbamoyl-4,4-difluoro-pyrrolidin-1-ylmethyl)-4-(4-fluoro-phenyl)-4-methyl-2-thiazol-2-yl-1,4-dihydro-pyrimidine-5-carboxylic acid methyl ester]
- EC50 (HBV DNA): 0.08 µM
- CC50 at 5 days (in vitro): ≥ 100 µM

Compound: COC(=O)C1=C(CN2CC(F)(F)CC2C(N)=O)NC(c2nccs2)=N[C@@]1(C)c1ccc(F)cc1 (stereo partly drawn) [Example 47, (S)-6-(2-carbamoyl-4,4-difluoro-pyrrolidin-1-ylmethyl)-4-(4-fluoro-phenyl)-4-methyl-2-thiazol-2-yl-1,4-dihydro-pyrimidine-5-carboxylic acid methyl ester]
- EC50 (HBV DNA): 0.048 µM
- CC50 at 5 days (in vitro): ≥ 100 µM

Compound: COC(=O)C1=C(CN2CCC(F)(F)CC2C(=O)O)NC(c2nccs2)=N[C@@]1(C)c1ccc(F)cc1 (stereo partly drawn) [Example 26, (S)-6-(2-carboxy-4,4-difluoro-piperidin-1-ylmethyl) 4-(4-fluoro-phenyl)-4-methyl-2-thiazol-2-yl-1,4-dihydro-pyrimidine-5-carboxylic acid methyl ester]
- EC50 (HBV DNA): 1.97 µM
- CC50 at 5 days (in vitro): ≥ 100 µM

Compound: COC(=O)C1=C(CN2CCOC[C@H]2C(=O)O)NC(c2nccn2C)=N[C@@]1(C)c1ccc(F)cc1 [Example 30, (S)-4-[(S)-6-(4-fluoro-phenyl)-5-methoxycarbonyl-6-methyl-2-(1-methyl-1H-imidazol-2-yl)-3,6-dihydro-pyrimidin-4-ylmethyl]-morpholine-3-carboxylic acid]
- EC50 (HBV DNA): 6.77 µM
- CC50 at 5 days (in vitro): ≥ 100 µM

Compound: COC(=O)C1=C(CN2CCOC[C@H]2C(=O)OC)NC(c2nccs2)=NC1(C)c1ccc(F)cc1 (stereo partly drawn) [Example 5, 4-[6-(4-Fluoro-phenyl)-5-methoxycarbonyl-6-methyl-2-thiazol-2-yl-3,6-dihydro-pyrimidin-4-ylmethyl]-morpholine-(S)-3-carboxylic acid methyl ester]
- EC50 (HBV DNA): 0.7 µM
- CC50 at 5 days (in vitro): > 100 µM

Compound: C[C@@]1(c2ccc(F)cc2)N=C(c2nccs2)NC(CN2CC(F)(F)C[C@H]2C(=O)O)=C1C#N [Example 21, (S)-1-[(S)-5-Cyano-6-(4-fluoro-phenyl)-6-methyl-2-thiazol-2-yl-3,6-dihydro-pyrimidin-4-ylmethyl]-4,4-difluoro-pyrrolidine-2-carboxylic acid]
- EC50 (HBV DNA): 21 µM
- CC50 at 5 days (in vitro): > 100 µM

Compound: C[C@@]1(c2ccc(F)c(F)c2)N=C(c2nccs2)NC(CN2CC(F)(F)C[C@H]2C(=O)O)=C1C#N [Example 23, (S)-1-[(S)-5-Cyano-6-(3,4-difluoro-phenyl)-6-methyl-2-thiazol-2-yl-3,6-dihydro-pyrimidin-4-ylmethyl]-4,4-difluoro-pyrrolidine-2-carboxylic acid]
- EC50 (HBV DNA): 7 µM
- CC50 at 5 days (in vitro): > 100 µM

— patent US9856247B2, “4-methyl-dihydropyrimidines for the treatment and prophylaxis of Hepatitis B virus infection” (Hoffmann-La Roche Inc., priority 2012, dated 2018)
